Data reported in patent US20250057958A1, “CYTOTOXICITY TARGETING CHIMERAS FOR CCR2-EXPRESSING CELLS” (GLAXOSMITHKLINE INTELLECTUAL PROPERTY DEVELOPMENT LIMITED, priority 2022, published 2025).

Legend:
[1] = target: T1, CHOK1 cells engineered to overexpress human CCR2 (Homo sapiens, UniProt P41597); assay: Antibody dependent cellular cytotoxicity (ADCC) reporter assay; format: cell-based; conditions: with anti-cotinine antibody (SEQ ID NO: 11/12, human IgG1 Fc S239D/I332E); Jurkat FcγRIIIa NFAT-luciferase reporter cells; 12-18 hours; average if more than one run; read-out: ADCC Reporter Assay pEC50 (converted)
T1 construct: expressed in transfected cells; host or cells: CHOK1 cells
Method: An antibody dependent cellular cytoxocity reporter assay was conducted using the following four assay components: (i) ARM compound of Formula (I) targeting CCR2 (concentrations ranging from 1 pM to 10 μM) (ii) anti-cotinine antibody having a heavy chain sequence of SEQ ID NO: 11 and a light chain sequence of SEQ ID NO: 12 (rabbit variable region with human IgG1 Fc domain containing a DE mutation (S239D/I332E)) (concentrations ranging from 0.01 μg/mL to 200 μg/mL); (iii) target cells: CHOK1 cells engineered to overexpress either human CCR2 (typically 1000-20,000 cells perwell) and (iv) reporter cells: Jurkat cells engineered to express FcγRIIIa with the reporter gene luciferase under the control of the NFAT promoter (typically 3000-75,000 cells per well). Reagents were combined in a final volume of 20 μL in a 384—well tissue culture treated plate. All four assay components were incubated together for about 12-18 hours. Thereafter, BioGlo Detection reagent (Promega) was added to the wells to lyse the cells and provide a substrate for the luciferase reporter protein. Luminescence signal was measured on a microplate reader and signal:background was calculated by dividing the signal of a test well by the signal obtained when no ARM compound of Formula (I) was added. EC50 calculations were done using Graphpad Prism Software, specifically a nonlinear regression curve fit (Y=Bottom+(Top−Bottom)/(1+10 ^((Log EC50−X)*HillSlope))).
ARMs compounds of Formula (I) of the invention were tested for ADCC activity in the above assay in or more experimental runs and the results are shown in Table 3 below. Potency of the compounds of Formula (I) of the invention is reported as a pEC50 value. The pEC50 value is the negative log of the EC50 value, wherein the EC50 value is the half maximal effective concentration measured in molar (M). For compounds tested in more than one experimental run, the pEC50 value is reported as an average.

[2] = tested on: CCR2 expressing cells (CD11b+Ly6c+Hi monocytes); assay: In vivo depletion assay (flow cytometry of peripheral blood); parameters: species or system human CCR2 (hCCR2) knock-in mice; conditions: IV bolus 0.1 mpk compound + 10 mpk anti-cotinine antibody (mouse IgG2a Fc), 48 hours
Method: (§1) Human CCR2 (hCCR2) knock-in mice (C57 background) were dosed intravenously with a PBS solution containing a compound of Formula (I) to measure depletion of CCR2 expressing cells in peripheral blood. Peripheral blood from IV dosed mice was also analyzed to determine PK properties of the compounds of Formula (I).
Formulations preparation: On the day of experiment, the stock solution of the compound of Formula (I) was removed from storage at −20° C. and thawed at room temperature. Anti-cotinine antibody having a heavy chain sequence of SEQ ID NO: 13 and a light chain sequence of SEQ ID NO: 14 (rabbit variable region sequence with mouse IgG2a Fc domain), if required was removed from storage at −80° C. and thawed at room temperature. Antibody vials were immediately transferred into wet ice after thawing. Compounds of Formula (I) were further diluted in DMSO as per experimental requirements.
Formulation composition: The formulation composition was Saline: DMSO: PBS. Saline was added based on the quantity required and then stock solution of the compound of Formula (1) prepared in DMSO, followed by addition of antibody in PBS. Formulations were incubated at room temperature for 30 minutes before administration to the mouse. DMSO was used at 1 to 2% (v/v) in the final formulation.
(§2) Administration to Animal: Solution formulation of antibody and compound of Formula (I) was injected (bolus injection) to the restrained mouse in the right/left lateral tail vein. Animals were dosed with 0.1 milligram per kilogram (mpk) of the compound of Formula (I) and 10 mpk of the anti-cotinine antibody.
(§3) Terminal bleeding at end of experiment (48 hr): Approximately 250 μL of blood in K2EDTA tube and approximately 250 μL of blood in SST (serum separation tube) was collected from each mouse through retro-orbital bleeding under deep isoflurane anesthesia. After bleeding, each mouse was sacrificed by cervical dislocation. The blood distribution at termination was determined as follows: • For PK: 50 μL of K2EDTA blood was transferred to another tube for PK • Flow cytometry: Remaining blood (˜200 μL) was used for flow cytometry analysis. • For serum collection: serum separator tubes (BD) were centrifuged at 4° C., 5000 rpm for 15 minutes. Approximately 100 μL serum was separated and stored at −80° C. for further usage. • Blood drug concentration: Samples collected at the various timepoints (0.25 hr, 2 hr, 24 and 48 hr) were analyzed to determine blood drug concentration.
Flow cytometry analysis: CCR2 depletion in peripheral blood was determined by flow cytometry. Briefly, peripheral blood was collected from all animals at the end of study termination and processed. […]
Percent depletion of CD11b+Ly6c+Hi cells and CCR2 expression for the different treatment groups was determined. […]

[3] = Blood drug concentration analysis (PK) in the in vivo depletion assay; parameters: species or system human CCR2 (hCCR2) knock-in mice; conditions: human CCR2 (hCCR2) knock-in, C57 background, mouse, whole blood, LC-MS/MS, IV bolus 0.1 mpk compound + 10 mpk anti-cotinine antibody, 48 hours post-dose, read-out: Exposure of Compound of Formula (I) 48 hours post-dose
Method: as §1, §2
Collection of Blood for PK: Blood was collected at time points 0.25 hour, 2 hours, and […] following administration (50 μL/time point) through retro-orbital bleeding under mild isoflurane anesthesia.
as §3
Blood drug concentration analysis: Drug concentration in blood samples was determined by an LC-MS/MS-based bioanalytical method developed at Syngene. Samples were analyzed on Q-Trap, API-5500 LC-MS/MS system coupled with Exion UHPLC system from SCIEX, USA operated in multiple reaction monitoring mode employing electrospray ionization technique in positive polarity. Analyte and internal standard peaks were resolved on Synergi Polar, 75×2.0 mm, 4 μcolumn using mobile phase 10 mM Ammonium acetate in Milli-Q water as phase A and 0.1% Formic acid in acetonitrile as Phase B. Gradient elution was performed with initial composition 95% Phase A at 0.0 min, holding it for 0.2 minutes, ramping to 5% by 1.0 minute, keeping the same for next 0.5 minutes and coming back to 95% by 1.6 minutes. The total run time was 2 minutes.
Working dilutions for calibration curve and quality control standards were prepared by serially diluting 20 mg/mL stock solution with DMSO. Spiked concentrations for calibration curve in the whole blood ranged from 1 ng/mL to 1000 ng/mL. […]

[4] = target: human alpha1 nicotinic acetylcholine (nACh) receptor (Homo sapiens, UniProt P02708+Q07001); assay: Nicotinic acetylcholine receptor antagonism assay (IONFlux automated patch clamp); format: cell-based
Source text: Cells expressing human alpha1 nicotinic acetylcholine (nACh) receptor (nAChR) were washed and dissociated using Trypsin containing buffer. Cells were then washed and seeded at a density of 3-5 million cells/mL and allowed to grow for 3 days. […] The receptor was then stimulated via addition of acetylcholine (ACh) and activation of the receptor was monitored via the IONFlux automated patch clamp system. IonFlux Data Analyzer software was utilized to perform leak subtraction and measure (min) peak current amplitude.
Data processing: (1) Current values recorded for vehicle only applications in individual traps/patterns were subtracted from corresponding current amplitude values for control, test article and control+test article. (2) Control response was calculated as % of the average response of the 3rd out of total 3 ACh (10 mM) applications alone. In rare situations, if the 3rd ACh response was obscured due to technical artifacts, the 2nd and/or 1st ACh (10 mM) application was considered as control. The peak current amplitude generated in the presence of each test article concentration was then used to calculate the % inhibition as compared to control response (10 mM ACh alone). These estimates were further corrected for vehicle response and run down corrected by normalizing with time matched control responses (10 mM ACh alone). The corrected percentages were then fit with a non-linear function in GraphPad Prism 6 (or later versions) to determine the IC50.
Exclusion criteria: (i) any n's with poor recording quality, (ii) control current amplitude <500 pA or (iii) significant outliers, as determined by the Grubbs' test.
ARMs compounds of Formula (I) of the invention were tested for antagonism of the nAChR in the above assay in […] experimental runs and the results are shown in Table 5 below. Antagonistic activity of the compounds of Formula (I) of the invention is reported as an IC50 value (half maximal inhibitory concentration) and the maximum percentage antagonism observed at the highest concentration of compound of Formula (I) tested, as indicated in Table 5. For compounds tested in more than one experimental run, the IC50 value is reported as an average.

human alpha1 nicotinic acetylcholine (nACh) receptor, sequence (P02708 21-457): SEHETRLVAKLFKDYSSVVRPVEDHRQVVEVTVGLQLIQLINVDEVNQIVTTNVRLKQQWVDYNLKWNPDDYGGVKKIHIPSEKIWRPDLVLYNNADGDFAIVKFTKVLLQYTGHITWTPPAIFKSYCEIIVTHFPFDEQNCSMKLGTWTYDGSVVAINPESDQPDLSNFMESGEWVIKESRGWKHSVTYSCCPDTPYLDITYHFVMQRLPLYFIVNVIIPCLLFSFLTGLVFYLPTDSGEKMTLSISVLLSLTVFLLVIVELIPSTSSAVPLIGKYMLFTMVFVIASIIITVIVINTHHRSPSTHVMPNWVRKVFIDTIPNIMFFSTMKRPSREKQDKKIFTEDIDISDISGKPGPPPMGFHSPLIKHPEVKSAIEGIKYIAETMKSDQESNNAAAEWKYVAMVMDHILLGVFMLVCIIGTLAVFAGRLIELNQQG
human alpha1 nicotinic acetylcholine (nACh) receptor, sequence (P11230 24-501 partner): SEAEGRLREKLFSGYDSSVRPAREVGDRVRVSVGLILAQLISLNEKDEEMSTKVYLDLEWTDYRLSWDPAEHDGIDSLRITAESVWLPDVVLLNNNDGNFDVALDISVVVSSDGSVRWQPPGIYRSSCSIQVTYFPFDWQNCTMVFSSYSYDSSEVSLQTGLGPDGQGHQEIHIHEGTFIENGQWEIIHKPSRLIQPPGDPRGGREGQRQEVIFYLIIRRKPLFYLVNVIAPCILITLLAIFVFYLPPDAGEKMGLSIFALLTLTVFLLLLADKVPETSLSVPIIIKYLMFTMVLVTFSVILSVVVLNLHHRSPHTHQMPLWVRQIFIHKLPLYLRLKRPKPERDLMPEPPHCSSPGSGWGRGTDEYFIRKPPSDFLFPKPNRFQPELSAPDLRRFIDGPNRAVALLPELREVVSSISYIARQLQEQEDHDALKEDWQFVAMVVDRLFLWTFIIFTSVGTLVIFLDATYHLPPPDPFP
human alpha1 nicotinic acetylcholine (nACh) receptor, sequence (Q07001 22-517): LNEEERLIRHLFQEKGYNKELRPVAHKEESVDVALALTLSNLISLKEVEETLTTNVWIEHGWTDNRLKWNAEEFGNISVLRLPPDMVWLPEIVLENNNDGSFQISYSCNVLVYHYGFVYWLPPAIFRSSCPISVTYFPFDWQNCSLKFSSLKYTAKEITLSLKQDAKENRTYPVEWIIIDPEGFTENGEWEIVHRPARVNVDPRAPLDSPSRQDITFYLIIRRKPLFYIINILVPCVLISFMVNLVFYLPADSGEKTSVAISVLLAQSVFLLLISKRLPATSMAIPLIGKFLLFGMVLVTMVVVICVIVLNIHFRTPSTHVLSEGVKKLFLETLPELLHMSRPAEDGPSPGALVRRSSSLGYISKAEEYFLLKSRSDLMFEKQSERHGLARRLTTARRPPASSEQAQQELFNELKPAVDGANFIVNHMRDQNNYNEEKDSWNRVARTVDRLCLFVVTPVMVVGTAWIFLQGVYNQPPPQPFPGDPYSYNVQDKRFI

Compound	EC50 [1]	% Depletion of CCR2 expressing cells [2]	concentration at 48 h [3]	Emax at 100 µM ([4]; maximum percentage antagonism at highest concentration tested, 100 μM, read-out: Maximum Response (%))	IC50 ([4]; nAChR antagonism, stimulated with ACh, average if more than one run)
CC(=O)N[C@@H]1C[C@H](NC(C)(C)C)CC[C@@H]1N1CC[C@H](Nc2nc(CCCNC(=O)[C@H]3CC[C@H](NC(=O)CCCO[C@H]4CC[C@H](OCCNC(=O)[C@H]5CC(=O)N(C)[C@@H]5c5cccnc5)CC4)CC3)nc3ccc(C(F)(F)F)cc23)C1=O [Example 1, (2S,3S)—N-(2-(((1R,4S)-4-(4-(((1S,4R)-4-((3-(4-(((S)-1-((1S,2R,4R)-2-Acetamido-4-(tert-butylamino)cyclohexyl)-2-oxopyrrolidin-3-yl)amino)-6-(trifluoromethyl)quinazolin-2-yl)propyl)carbamoyl)cyclohexyl)amino)-4-oxobutoxy)cyclohexyl)oxy)ethyl)-1-methyl-5-oxo-2-(pyridin-3-yl)pyrrolidine-3-carboxamide]	0.158 nM	89.18%	42.9 ng/mL		
CC(=O)N[C@@H]1C[C@H](NC(C)(C)C)CC[C@@H]1N1CC[C@H](Nc2nc(COCCNC(=O)[C@H]3CC[C@H](NC(=O)CCCO[C@H]4CC[C@H](OCCNC(=O)[C@H]5CC(=O)N(C)[C@@H]5c5cccnc5)CC4)CC3)nc3ccc(C(F)(F)F)cc23)C1=O [Example 14, (2S,3S)-N-(2-(((1R,4S)-4-(4-(((1S,4R)-4-((2-((4-(((S)-1-((1S,2R,4R)-2-acetamido-4-(tert-butylamino)cyclohexyl)-2-oxopyrrolidin-3-yl)amino)-6-(trifluoromethyl)quinazolin-2-yl)methoxy)ethyl)carbamoyl)cyclohexyl)amino)-4-oxobutoxy)cyclohexyl)oxy)ethyl)-1-methyl-5-oxo-2-(pyridin-3-yl)pyrrolidine-3-carboxamide]	0.501 nM			54%	> 100000 nM
